The values below come from PubChem BioAssay (NCI).

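Following 48 hours of exposure in 96-well plates, responses at five concentrations were used to interpolate endpoints linearly. Here, GI50 denotes the concentration required for 50% inhibition of growth. TGI marks complete inhibition of growth.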

Among the test systems are MDA-N; SNB-78 CNS; DLD-1 colon; XF 498 CNS; P388 leukemia; M19-MEL melanoma; DMS 273 small cell lung; HOP-18 NSCLC; SN12K1 renal; RXF-631 renal; LXFL 529 NSCLC.
Common to all, as to assay: NCI tumour cell line growth inhibition, 48 h

On to `S=C=NCc1ccccc1`, for which the TGI in the assay on MDA-N is 12.4 µM.
Consider `Nc1ncnc2c(C3OC(CO)C(O)C3O)[nH]nc12` (stereo unspecified), for which the TGI is 40.4 µM in the assay on SNB-78 CNS; 10.8 µM in the assay with DLD-1 colon; 1.34 µM with XF 498 CNS; 51.7 µM in the assay with P388 leukemia; 80.5 µM in the assay with M19-MEL melanoma; 1.58 µM in the assay with DMS 273 small cell lung. Moreover, the TGI in the assay with HOP-18 NSCLC stood at 0.144 µM; in the assay with SN12K1 renal, 1.88 µM.
As for `COc1cc2c(c(OC)c1OC)-c1ccc(SC)c(=O)cc1[C@@H](NCc1cccc(C#N)c1)CC2`, the GI50 in the assay on DLD-1 colon, in the assay with XF 498 CNS, in the assay on M19-MEL melanoma, in the assay on DMS 273 small cell lung and in the assay with LXFL 529 NSCLC was less than 0.0075 µM throughout. The TGI in the assay on DLD-1 colon is more than 75 µM; with XF 498 CNS, less than 0.0075 µM; with M19-MEL melanoma it was 42.4 µM; in the assay with DMS 273 small cell lung it was less than 0.0075 µM; in the assay with RXF-631 renal it was 21.6 µM; in the assay on LXFL 529 NSCLC it was more than 75 µM.
Consider `NCCCC1NC(=O)/C(=C(O)/C=C/C2CCC[C@@H]2CC2SCCS2)C1=O` (stereo partly specified), for which the TGI in the assay on DLD-1 colon, in the assay with M19-MEL melanoma, in the assay on DMS 273 small cell lung, with HOP-18 NSCLC and with LXFL 529 NSCLC was more than 100 µM throughout.
Consider `Cc1ccccc1NC(=O)C1C(=O)N(c2ccccc2C)C(=O)/C1=N\N` (stereo unspecified), for which the TGI in the assay with SNB-78 CNS, with DLD-1 colon, in the assay with M19-MEL melanoma, in the assay with HOP-18 NSCLC, in the assay on RXF-631 renal and in the assay on LXFL 529 NSCLC was more than 100 µM throughout.
`Cc1c(C(=O)/C=C/c2ccccc2Cl)[n+](=O)c2ccccc2n1[O-]`: the TGI with SNB-78 CNS came out at 44.3 µM; in the assay with DLD-1 colon it was 19.8 µM; in the assay with M19-MEL melanoma, 29.1 µM; in the assay on DMS 273 small cell lung, 27.9 µM; with HOP-18 NSCLC, 28.2 µM; in the assay with RXF-631 renal, 36.5 µM. Further, in the assay on LXFL 529 NSCLC, the TGI is 20 µM.
With `CC1=CC2=C(C(N)=O)C(=O)OC2(C)C(c2ccccc2)C1` (stereo unspecified), the TGI with MDA-N was more than 100 µM.
The same measure, in the same setting: the same measure for `OCCNc1ncnc2c1ncn2C1OC(CO)C(O)C1O` (stereo unspecified): more than 100 µM; for `Cc1cccc(NC(=O)CCl)c1`: more than 10 µM.
For `CCOC(=O)N1N=NC2C3OC(C[C@@]3(C#N)OC(C)=O)[C@H]21` (stereo partly specified), the TGI with SNB-78 CNS, in the assay on DLD-1 colon, in the assay on XF 498 CNS, with M19-MEL melanoma, with DMS 273 small cell lung and in the assay on HOP-18 NSCLC was more than 100 µM throughout. Further, the TGI in the assay with RXF-631 renal and in the assay with LXFL 529 NSCLC was more than 100 µM in each case.
As to `Nc1ccc2c(c1)CC1c3ccccc3C(C2)c2ccccc21`, the TGI with SNB-78 CNS, in the assay on DLD-1 colon, in the assay on M19-MEL melanoma, in the assay with DMS 273 small cell lung, in the assay with HOP-18 NSCLC and in the assay on LXFL 529 NSCLC was more than 100 µM each time.
Regarding `CC(=O)Nc1ccccc1-c1cnc2ccccc2n1`, the TGI with SNB-78 CNS, with DLD-1 colon, in the assay with XF 498 CNS, in the assay on M19-MEL melanoma, in the assay with HOP-18 NSCLC and in the assay with LXFL 529 NSCLC was more than 100 µM throughout.
Turning to `CC(=O)C1C(=O)C(=O)N(c2ccccc2N2C(=O)C(=O)C(C(C)=O)C2=O)C1=O` (stereo unspecified), the TGI with SNB-78 CNS, with DLD-1 colon, with M19-MEL melanoma, in the assay on HOP-18 NSCLC, in the assay with RXF-631 renal and in the assay with LXFL 529 NSCLC was more than 100 µM throughout.
Take `COc1c(NC(=O)CC(C)=O)[c]([Hg][O]C(C)=O)c(OC)c(Cl)[c]1[Hg][O]C(C)=O`: the GI50 in the assay on SNB-78 CNS was 15.5 µM; in the assay on DLD-1 colon it was 14.2 µM; in the assay with XF 498 CNS, 2.55 µM; in the assay with M19-MEL melanoma it was 12.6 µM; with DMS 273 small cell lung it was 16.4 µM; with HOP-18 NSCLC, 13.6 µM. The GI50 with RXF-631 renal is 3.02 µM; with LXFL 529 NSCLC, 2.63 µM. In addition, the TGI with SNB-78 CNS worked out at 34.2 µM; in the assay on DLD-1 colon, 32.6 µM; in the assay on XF 498 CNS it was 6.41 µM; in the assay with M19-MEL melanoma it was 25.1 µM; with DMS 273 small cell lung it was 31.9 µM; in the assay on HOP-18 NSCLC it was 26.5 µM. In addition, the TGI in the assay on RXF-631 renal worked out at 13.7 µM; with LXFL 529 NSCLC, 11.1 µM.
As to `Cc1ccccc1-c1c(N)nc(N)nc1C(=O)Nc1nccs1`, the TGI in the assay with SNB-78 CNS, with DLD-1 colon, in the assay with XF 498 CNS, with M19-MEL melanoma, with DMS 273 small cell lung and in the assay with HOP-18 NSCLC was more than 100 µM each time. Besides, the TGI in the assay with RXF-631 renal and with LXFL 529 NSCLC was more than 100 µM throughout.
Consider `O=C(O)c1ccc(NCc2nc3cc4ccccc4cc3[nH]2)cc1`, for which the TGI in the assay on MDA-N is more than 100 µM.
Turning to `CCCCCCCCCC1C(C)c2c([nH]c3ccccc23)C2C(=O)N(c3ccccc3)C(=O)C21` (stereo unspecified), the TGI in the assay on SNB-78 CNS is more than 100 µM; in the assay on DLD-1 colon, 30.2 µM; in the assay on XF 498 CNS it was 23.2 µM; in the assay with DMS 273 small cell lung it was 25 µM; in the assay with RXF-631 renal it was 11.7 µM; with LXFL 529 NSCLC it was 50.4 µM.
In the case of `C/C(=N\NC(=O)c1ccccc1O)c1cccc(/C(C)=N/NC(=O)c2ccccc2O)n1`, the GI50 was 46.2 µM in the assay with SNB-78 CNS; 2.62 µM in the assay on DLD-1 colon; 11.5 µM with M19-MEL melanoma; 20.4 µM in the assay with DMS 273 small cell lung; 1.84 µM with HOP-18 NSCLC. Further, the TGI in the assay with SNB-78 CNS is more than 100 µM; with DLD-1 colon it was more than 100 µM; in the assay with XF 498 CNS, 46.7 µM; in the assay with M19-MEL melanoma, more than 74 µM; in the assay with DMS 273 small cell lung, more than 100 µM; with MDA-N it was more than 100 µM. In addition, the TGI in the assay with HOP-18 NSCLC is 39.4 µM; with LXFL 529 NSCLC, 53.1 µM.
